{"source": "paper PMC5862592", "about": "“CDK8/19 inhibition induces premature G1/S transition and ATR-dependent cell death in prostate cancer cells” (Oncotarget, 2018)", "assay_in_all_cases": "biochemical", "set-up_in_all_cases": "KINOMEscan active site-directed competition binding assay (DiscoveRx), 456 kinases, per cent of control at 300 nM", "conditions_in_all_cases": "read-out: Percent of Control (%)", "key": {"ABL2": {"target": "ABL2 (Homo sapiens, UniProt P42684)", "procedure": "(§1) Kinase selectivity of T-474 and T-418 was evaluated at 300 nmol/L using a panel of 456 kinases at DiscoveRx (KINOMEscan). The platform employs an active site-directed competition binding assay to quantitatively measure interactions between test compounds and kinases. […] In VCaP prostate cancer cells, treatment with T-474 or T-418 suppressed the phosphorylation of the known CDK8 substrate STAT1 at Ser727 both in the absence and in the presence of IFN-γ (Figure 1B), which stimulates CDK8-mediated STAT1 phosphorylation."}, "BMX": {"target": "BMX (Homo sapiens, UniProt P51813)", "sequence (P51813 whole entry)": "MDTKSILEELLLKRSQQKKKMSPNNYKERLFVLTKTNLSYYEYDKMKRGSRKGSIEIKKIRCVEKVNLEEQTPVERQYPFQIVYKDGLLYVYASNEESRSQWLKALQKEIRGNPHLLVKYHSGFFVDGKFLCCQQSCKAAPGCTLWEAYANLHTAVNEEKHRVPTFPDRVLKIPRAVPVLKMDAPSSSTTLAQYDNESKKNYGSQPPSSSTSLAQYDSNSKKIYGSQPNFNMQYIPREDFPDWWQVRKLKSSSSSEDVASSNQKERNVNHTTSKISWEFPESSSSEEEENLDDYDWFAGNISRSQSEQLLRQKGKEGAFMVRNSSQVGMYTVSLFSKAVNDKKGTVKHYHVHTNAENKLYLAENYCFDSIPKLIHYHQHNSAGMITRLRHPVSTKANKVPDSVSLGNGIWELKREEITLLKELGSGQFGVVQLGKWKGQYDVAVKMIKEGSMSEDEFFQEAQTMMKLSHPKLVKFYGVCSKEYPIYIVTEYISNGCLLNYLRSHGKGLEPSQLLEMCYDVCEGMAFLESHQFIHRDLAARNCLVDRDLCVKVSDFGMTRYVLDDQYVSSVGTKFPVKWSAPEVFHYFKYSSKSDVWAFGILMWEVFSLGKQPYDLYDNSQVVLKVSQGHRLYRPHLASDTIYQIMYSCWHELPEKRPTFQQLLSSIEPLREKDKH", "procedure": "as §1"}, "CDC2L5": {"target": "T1, CDC2L5 (Homo sapiens, UniProt Q14004)", "T1 construct": "gene CDK13", "procedure": "as §1"}, "DMPK": {"target": "DMPK (Homo sapiens, UniProt Q09013)", "procedure": "as §1"}, "ERK2": {"target": "T2, ERK2 (Homo sapiens, UniProt P28482)", "T2 construct": "gene MAPK1", "procedure": "as §1"}, "FLT3(D835Y)": {"target": "FLT3(D835Y) (Homo sapiens, UniProt P36888, D835Y)", "procedure": "as §1"}, "HIPK2": {"target": "HIPK2 (Homo sapiens, UniProt Q9H2X6)", "procedure": "as §1"}, "HUNK": {"target": "HUNK (Homo sapiens, UniProt P57058)", "procedure": "as §1"}, "INSR": {"target": "INSR (Homo sapiens, UniProt P06213)", "procedure": "as §1"}, "[1]": {"target": "T3, JAK1(JH1domain-catalytic) (Homo sapiens, UniProt P23458)", "T3 construct": "JH1domain-catalytic", "procedure": "as §1"}, "JNK1": {"target": "T4, JNK1 (Homo sapiens, UniProt P45983)", "T4 construct": "gene MAPK8", "procedure": "as §1"}, "MET(Y1235D)": {"target": "MET(Y1235D) (Homo sapiens, UniProt P08581, Y1235D)", "sequence (P08581 whole entry Y1235D)": "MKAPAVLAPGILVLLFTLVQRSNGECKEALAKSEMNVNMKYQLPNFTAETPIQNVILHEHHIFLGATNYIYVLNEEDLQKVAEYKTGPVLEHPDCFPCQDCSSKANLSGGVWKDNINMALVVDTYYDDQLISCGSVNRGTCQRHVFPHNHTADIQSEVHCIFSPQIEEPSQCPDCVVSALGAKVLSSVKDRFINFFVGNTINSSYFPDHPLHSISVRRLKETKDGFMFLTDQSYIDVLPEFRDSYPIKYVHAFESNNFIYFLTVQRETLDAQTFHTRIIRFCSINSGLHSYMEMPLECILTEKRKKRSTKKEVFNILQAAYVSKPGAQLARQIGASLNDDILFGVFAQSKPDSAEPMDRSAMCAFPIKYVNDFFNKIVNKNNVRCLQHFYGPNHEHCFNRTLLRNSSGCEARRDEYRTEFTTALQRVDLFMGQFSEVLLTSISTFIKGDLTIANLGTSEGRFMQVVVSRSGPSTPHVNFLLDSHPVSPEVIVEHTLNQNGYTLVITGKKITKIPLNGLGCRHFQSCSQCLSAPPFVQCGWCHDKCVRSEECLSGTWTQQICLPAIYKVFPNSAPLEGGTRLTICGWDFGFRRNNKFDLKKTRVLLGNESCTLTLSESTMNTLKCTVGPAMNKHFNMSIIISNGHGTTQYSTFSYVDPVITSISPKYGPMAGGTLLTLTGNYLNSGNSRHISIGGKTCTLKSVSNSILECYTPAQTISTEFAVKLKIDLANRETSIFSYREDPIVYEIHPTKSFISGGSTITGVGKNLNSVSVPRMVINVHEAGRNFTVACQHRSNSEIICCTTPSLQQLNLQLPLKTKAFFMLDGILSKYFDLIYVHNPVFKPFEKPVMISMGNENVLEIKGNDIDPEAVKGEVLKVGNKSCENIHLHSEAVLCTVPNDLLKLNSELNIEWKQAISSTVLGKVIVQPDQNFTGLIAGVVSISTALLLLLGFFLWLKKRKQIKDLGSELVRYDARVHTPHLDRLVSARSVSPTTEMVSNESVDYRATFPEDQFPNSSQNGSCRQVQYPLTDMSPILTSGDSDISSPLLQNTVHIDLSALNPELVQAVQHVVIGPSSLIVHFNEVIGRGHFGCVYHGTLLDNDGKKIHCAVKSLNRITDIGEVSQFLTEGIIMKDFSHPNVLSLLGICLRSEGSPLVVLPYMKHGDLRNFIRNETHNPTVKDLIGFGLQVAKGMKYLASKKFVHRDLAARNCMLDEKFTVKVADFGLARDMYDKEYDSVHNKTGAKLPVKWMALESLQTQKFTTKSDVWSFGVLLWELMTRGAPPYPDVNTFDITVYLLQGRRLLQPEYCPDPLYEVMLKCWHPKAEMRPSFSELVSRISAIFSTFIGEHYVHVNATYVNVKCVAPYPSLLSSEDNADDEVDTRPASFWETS", "procedure": "as §1"}, "PIP5K2B": {"target": "T5, PIP5K2B (Homo sapiens, UniProt P78356)", "T5 construct": "gene PIP4K2B", "procedure": "as §1"}, "PKMYT1": {"target": "PKMYT1 (Homo sapiens, UniProt Q99640)", "procedure": "as §1"}, "PKN1": {"target": "PKN1 (Homo sapiens, UniProt Q16512)", "procedure": "as §1"}, "PKN2": {"target": "PKN2 (Homo sapiens, UniProt Q16513)", "sequence (Q16513 whole entry)": "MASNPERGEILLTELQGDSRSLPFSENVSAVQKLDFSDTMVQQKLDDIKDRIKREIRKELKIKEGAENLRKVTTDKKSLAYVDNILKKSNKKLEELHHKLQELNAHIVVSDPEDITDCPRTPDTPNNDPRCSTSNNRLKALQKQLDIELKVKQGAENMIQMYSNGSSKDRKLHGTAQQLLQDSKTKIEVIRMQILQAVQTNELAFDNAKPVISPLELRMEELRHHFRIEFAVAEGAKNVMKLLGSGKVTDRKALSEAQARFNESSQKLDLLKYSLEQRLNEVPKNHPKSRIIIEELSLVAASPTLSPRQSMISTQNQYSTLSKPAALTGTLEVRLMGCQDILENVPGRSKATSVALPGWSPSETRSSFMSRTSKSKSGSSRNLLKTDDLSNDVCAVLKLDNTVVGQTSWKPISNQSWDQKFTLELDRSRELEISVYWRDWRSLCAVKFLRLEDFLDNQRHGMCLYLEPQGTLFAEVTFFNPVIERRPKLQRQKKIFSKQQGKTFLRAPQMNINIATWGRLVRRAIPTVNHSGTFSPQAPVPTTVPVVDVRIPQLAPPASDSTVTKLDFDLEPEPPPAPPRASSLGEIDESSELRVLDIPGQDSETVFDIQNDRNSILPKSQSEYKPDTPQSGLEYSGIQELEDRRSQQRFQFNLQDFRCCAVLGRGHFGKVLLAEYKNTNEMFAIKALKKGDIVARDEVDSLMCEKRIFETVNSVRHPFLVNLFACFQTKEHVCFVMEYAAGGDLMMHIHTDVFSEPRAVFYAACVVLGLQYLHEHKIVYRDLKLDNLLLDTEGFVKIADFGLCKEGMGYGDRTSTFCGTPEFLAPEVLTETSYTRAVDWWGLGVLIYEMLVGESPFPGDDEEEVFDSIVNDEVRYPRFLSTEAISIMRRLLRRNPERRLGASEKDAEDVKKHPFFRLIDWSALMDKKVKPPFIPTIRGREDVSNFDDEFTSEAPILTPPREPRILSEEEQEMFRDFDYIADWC", "procedure": "as §1"}, "PRKCI": {"target": "PRKCI (Homo sapiens, UniProt P41743)", "sequence (P41743 whole entry)": "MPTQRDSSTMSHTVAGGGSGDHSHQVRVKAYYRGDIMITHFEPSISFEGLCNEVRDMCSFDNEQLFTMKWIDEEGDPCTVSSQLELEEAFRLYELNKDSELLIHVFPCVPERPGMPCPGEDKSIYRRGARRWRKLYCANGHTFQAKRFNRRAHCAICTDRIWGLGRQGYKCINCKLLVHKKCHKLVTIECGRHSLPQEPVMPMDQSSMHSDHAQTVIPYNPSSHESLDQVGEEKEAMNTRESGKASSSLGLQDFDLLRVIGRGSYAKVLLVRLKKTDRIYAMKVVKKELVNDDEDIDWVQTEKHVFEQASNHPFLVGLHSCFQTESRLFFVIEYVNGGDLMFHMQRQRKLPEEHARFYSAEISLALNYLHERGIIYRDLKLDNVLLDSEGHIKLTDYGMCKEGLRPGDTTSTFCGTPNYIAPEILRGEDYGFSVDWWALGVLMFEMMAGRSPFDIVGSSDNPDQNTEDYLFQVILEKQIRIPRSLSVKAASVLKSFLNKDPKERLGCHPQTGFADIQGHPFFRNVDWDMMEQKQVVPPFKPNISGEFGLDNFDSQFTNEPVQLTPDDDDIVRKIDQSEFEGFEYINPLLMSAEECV", "procedure": "as §1"}, "RIPK1": {"target": "RIPK1 (Homo sapiens, UniProt Q13546)", "procedure": "as §1"}, "RIPK4": {"target": "RIPK4 (Homo sapiens, UniProt P57078)", "sequence (P57078 whole entry)": "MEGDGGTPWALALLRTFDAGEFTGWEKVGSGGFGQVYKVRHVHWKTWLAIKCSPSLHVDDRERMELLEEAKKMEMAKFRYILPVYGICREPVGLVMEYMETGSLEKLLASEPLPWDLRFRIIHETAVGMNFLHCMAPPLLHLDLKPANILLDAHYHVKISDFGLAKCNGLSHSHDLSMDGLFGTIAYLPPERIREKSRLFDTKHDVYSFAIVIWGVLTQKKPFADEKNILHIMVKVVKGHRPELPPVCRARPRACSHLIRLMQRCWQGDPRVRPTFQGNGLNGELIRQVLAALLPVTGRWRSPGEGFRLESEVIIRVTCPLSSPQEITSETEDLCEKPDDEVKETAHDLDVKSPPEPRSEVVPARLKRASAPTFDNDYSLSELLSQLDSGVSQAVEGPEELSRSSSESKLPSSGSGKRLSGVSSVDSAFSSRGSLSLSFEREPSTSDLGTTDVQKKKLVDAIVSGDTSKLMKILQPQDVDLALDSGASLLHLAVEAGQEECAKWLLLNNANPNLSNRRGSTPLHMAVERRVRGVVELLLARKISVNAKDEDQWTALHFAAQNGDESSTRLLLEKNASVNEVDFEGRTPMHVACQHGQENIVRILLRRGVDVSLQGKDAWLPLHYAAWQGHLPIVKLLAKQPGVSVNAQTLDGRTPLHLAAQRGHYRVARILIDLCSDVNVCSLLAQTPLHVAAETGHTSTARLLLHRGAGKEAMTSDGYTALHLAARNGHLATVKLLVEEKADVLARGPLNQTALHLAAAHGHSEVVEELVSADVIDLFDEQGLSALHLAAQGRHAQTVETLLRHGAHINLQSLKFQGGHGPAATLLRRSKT", "procedure": "as §1"}, "TGFBR2": {"target": "TGFBR2 (Homo sapiens, UniProt P37173)", "procedure": "as §1"}, "TNNI3K": {"target": "TNNI3K (Homo sapiens, UniProt Q59H18)", "procedure": "as §1"}, "ULK3": {"target": "ULK3 (Homo sapiens, UniProt Q6PHR2)", "sequence (Q6PHR2 whole entry)": "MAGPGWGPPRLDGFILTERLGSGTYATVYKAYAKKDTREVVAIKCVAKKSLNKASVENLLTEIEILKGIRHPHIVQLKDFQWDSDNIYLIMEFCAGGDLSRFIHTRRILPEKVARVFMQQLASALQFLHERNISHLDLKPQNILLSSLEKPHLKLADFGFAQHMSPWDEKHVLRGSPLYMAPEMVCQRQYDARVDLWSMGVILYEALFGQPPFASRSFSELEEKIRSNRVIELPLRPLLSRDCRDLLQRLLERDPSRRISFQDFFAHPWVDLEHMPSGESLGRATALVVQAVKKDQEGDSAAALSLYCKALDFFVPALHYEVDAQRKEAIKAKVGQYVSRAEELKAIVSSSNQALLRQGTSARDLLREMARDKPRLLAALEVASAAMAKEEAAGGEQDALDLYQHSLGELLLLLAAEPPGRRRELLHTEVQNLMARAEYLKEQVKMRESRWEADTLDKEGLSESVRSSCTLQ", "procedure": "as §1"}}, "note": "Like-named read-outs stand apart in the source and are kept apart here."}
{"molecule": "Cc1ncccc1Oc1sc(C(N)=O)c2c1-c1c(cnn1C)CC2", "note": "[T-474, 1-methyl-8-((2-methylpyridin-3-yl)oxy)-4,5-dihydro-1H-thieno[3,4-g]indazole-6-carboxamide]", "values": [{"measurement": "remaining binding at 0.3 µM", "setting": "ABL2", "result": 100, "unit": "%"}, {"measurement": "remaining binding at 0.3 µM", "setting": "BMX", "result": 82, "unit": "%"}, {"measurement": "remaining binding at 0.3 µM", "setting": "CDC2L5", "result": 86, "unit": "%"}, {"measurement": "remaining binding at 0.3 µM", "setting": "DMPK", "result": 98, "unit": "%"}, {"measurement": "remaining binding at 0.3 µM", "setting": "ERK2", "result": 85, "unit": "%"}, {"measurement": "remaining binding at 0.3 µM", "setting": "FLT3(D835Y)", "result": 60, "unit": "%"}, {"measurement": "remaining binding at 0.3 µM", "setting": "HIPK2", "result": 42, "unit": "%"}, {"measurement": "remaining binding at 0.3 µM", "setting": "HUNK", "result": 100, "unit": "%"}, {"measurement": "remaining binding at 0.3 µM", "setting": "INSR", "result": 66, "unit": "%"}, {"measurement": "remaining binding at 0.3 µM", "setting": "[1]", "result": 73, "unit": "%"}, {"measurement": "remaining binding at 0.3 µM", "setting": "JNK1", "result": 87, "unit": "%"}, {"measurement": "remaining binding at 0.3 µM", "setting": "MET(Y1235D)", "result": 100, "unit": "%"}, {"measurement": "remaining binding at 0.3 µM", "setting": "PIP5K2B", "result": 100, "unit": "%"}, {"measurement": "remaining binding at 0.3 µM", "setting": "PKMYT1", "result": 71, "unit": "%"}, {"measurement": "remaining binding at 0.3 µM", "setting": "PKN1", "result": 54, "unit": "%"}, {"measurement": "remaining binding at 0.3 µM", "setting": "PKN2", "result": 100, "unit": "%"}, {"measurement": "remaining binding at 0.3 µM", "setting": "PRKCI", "result": 77, "unit": "%"}, {"measurement": "remaining binding at 0.3 µM", "setting": "RIPK1", "result": 95, "unit": "%"}, {"measurement": "remaining binding at 0.3 µM", "setting": "RIPK4", "result": 100, "unit": "%"}, {"measurement": "remaining binding at 0.3 µM", "setting": "TGFBR2", "result": 78, "unit": "%"}, {"measurement": "remaining binding at 0.3 µM", "setting": "TNNI3K", "result": 95, "unit": "%"}, {"measurement": "remaining binding at 0.3 µM", "setting": "ULK3", "result": 20, "unit": "%"}]}
{"molecule": "O=C(/C=C/c1cnccc1-c1ccc(F)cc1)Nc1ccc(CCc2nnco2)cc1", "note": "[T-418, (2E)-3-(4-(4-fluorophenyl)pyridin-3-yl)-N-(4-(2-(1,3,4-oxadiazol-2-yl)ethyl)phenyl)acrylamide]", "values": [{"measurement": "remaining binding at 0.3 µM", "setting": "ABL2; sheet T-418", "result": 90, "unit": "%"}, {"measurement": "remaining binding at 0.3 µM", "setting": "BMX; sheet T-418", "result": 100, "unit": "%"}, {"measurement": "remaining binding at 0.3 µM", "setting": "CDC2L5; sheet T-418", "result": 87, "unit": "%"}, {"measurement": "remaining binding at 0.3 µM", "setting": "DMPK; sheet T-418", "result": 91, "unit": "%"}, {"measurement": "remaining binding at 0.3 µM", "setting": "ERK2; sheet T-418", "result": 79, "unit": "%"}, {"measurement": "remaining binding at 0.3 µM", "setting": "FLT3(D835Y); sheet T-418", "result": 100, "unit": "%"}, {"measurement": "remaining binding at 0.3 µM", "setting": "HIPK2; sheet T-418", "result": 53, "unit": "%"}, {"measurement": "remaining binding at 0.3 µM", "setting": "HUNK; sheet T-418", "result": 100, "unit": "%"}, {"measurement": "remaining binding at 0.3 µM", "setting": "INSR; sheet T-418", "result": 69, "unit": "%"}, {"measurement": "remaining binding at 0.3 µM", "setting": "[1]; sheet T-418", "result": 69, "unit": "%"}, {"measurement": "remaining binding at 0.3 µM", "setting": "JNK1; sheet T-418", "result": 90, "unit": "%"}, {"measurement": "remaining binding at 0.3 µM", "setting": "MET(Y1235D); sheet T-418", "result": 95, "unit": "%"}, {"measurement": "remaining binding at 0.3 µM", "setting": "PIP5K2B; sheet T-418", "result": 94, "unit": "%"}, {"measurement": "remaining binding at 0.3 µM", "setting": "PKMYT1; sheet T-418", "result": 73, "unit": "%"}, {"measurement": "remaining binding at 0.3 µM", "setting": "PKN1; sheet T-418", "result": 48, "unit": "%"}, {"measurement": "remaining binding at 0.3 µM", "setting": "PKN2; sheet T-418", "result": 95, "unit": "%"}, {"measurement": "remaining binding at 0.3 µM", "setting": "PRKCI; sheet T-418", "result": 70, "unit": "%"}, {"measurement": "remaining binding at 0.3 µM", "setting": "RIPK1; sheet T-418", "result": 83, "unit": "%"}, {"measurement": "remaining binding at 0.3 µM", "setting": "RIPK4; sheet T-418", "result": 100, "unit": "%"}, {"measurement": "remaining binding at 0.3 µM", "setting": "TGFBR2; sheet T-418", "result": 84, "unit": "%"}, {"measurement": "remaining binding at 0.3 µM", "setting": "TNNI3K; sheet T-418", "result": 100, "unit": "%"}, {"measurement": "remaining binding at 0.3 µM", "setting": "ULK3; sheet T-418", "result": 20, "unit": "%"}]}
